Data reported in US10144732B2 (BIOGEN MA INC., priority 2014, dated 2018).
Structures can show the parent of a compound that is named as a salt.

Target: T1, Human ATX protein (Homo sapiens, UniProt Q13822)
T1 construct: made in house
Assay: ATX biochemical assay (FRET, FS-3 substrate)
Details: FRET assay, FS-3 2 μM, ATX 1.0 μg/mL, 30 minutes preincubation, 2 hours reaction at room temperature; read-out: IC50
Outline: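 FRET read-out: cleavage of FS-3 (2 μM final) unquenches fluorescein, measured at 485/538 nm after 2 h at room temperature. Before substrate addition, in-house-expressed human autotaxin (1.0 μg/mL) sat with compound for 30 min in pH 7.4 Tris/NaCl/KCl/CaCl2/MgCl2 buffer containing fatty acid free-BSA at 1 mg/mL.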

Compound	IC50 [nM]
COc1ccc(Cn2nc(C(F)(F)F)c3c2CN(C(=O)C[C@H]2CC[C@H](C(=O)O)CC2)CC3)cc1 [Example 5-15, trans-4-(2-(1-(4-Methoxylbenzyl)-3-(trifluoromethyl)-4,5-dihydro-1H-pyrazolo[3,4-c]pyridin-6(7H)-yl)-2-oxoethyl)cyclohexanecarboxylic acid]	≤ 100
COC(=O)CC1CN(CC(=O)N2CCc3c(C(F)(F)F)nn(Cc4ccc(F)cc4)c3C2)C1 [Example 12-19, Methyl 2-(1-(2-(1-(4-fluorobenzyl)-3-(trifluoromethyl)-4,5-dihydro-1H-pyrazolo[3,4-c]pyridin-6(7H)-yl)-2-oxoethyl)azetidin-3-yl)acetate TFA salt]	≤ 100
O=C(O)CCN1CCC(C(=O)N2CCc3c(C(F)(F)F)nn(Cc4ccc(F)cc4)c3C2)C1 (stereo not shown) [Example 15-2, 3-(3-(1-(4-Fluorobenzyl)-3-(trifluoromethyl)-4,5,6,7-tetrahydro-1H-pyrazolo[3,4-c]pyridine-6-carbonyl)pyrrolidin-1-yl)propanoic acid TFA salt]	100 to 250
O=C(C[C@H]1CC[C@H](C(=O)O)CC1)N1CCc2c(C(F)(F)F)nn(Cc3ccc(F)cc3F)c2C1 [Example 5-30, trans-4-(2-(1-(2,4-Difluorobenzyl)-3-(trifluoromethyl)-4,5-dihydro-1H-pyrazolo[3,4-c]pyridin-6(7H)-yl)-2-oxoethyl)cyclohexanecarboxylic acid]	≤ 100
CC(C)(C)OC(=O)N1CCCC(CC(=O)N2CCc3c(C(F)(F)F)nn(Cc4ccc(F)cc4)c3C2)C1 (stereo not shown) [Example 8-4, tert-Butyl 3-(2-(1-(4-fluorobenzyl)-3-(trifluoromethyl)-4,5-dihydro-1H-pyrazolo[3,4-c]pyridin-6(7H)-yl)-2-oxoethyl)piperidine-1-carboxylate]	≤ 100
CC(C)N1CCCC(CC(=O)N2CCc3c(C(F)(F)F)nn(Cc4ccc(F)cc4)c3C2)C1 (stereo not shown) [Example 11-4, 1-(1-(4-Fluorobenzyl)-3-(trifluoromethyl)-4,5-dihydro-1H-pyrazolo[3,4-c]pyridin-6(7H)-yl)-2-(1-isopropylpiperidin-3-yl)ethanone formate]	≤ 100
O=C(O)C1CCC(CC(=O)N2CCc3c(C(F)(F)F)nn(Cc4ccc(Cl)cc4F)c3C2)C1 (mixture of isomers) [Example 6-6, 3-(2-(1-(4-Chloro-2-fluorobenzyl)-3-(trifluoromethyl)-4,5-dihydro-1H-pyrazolo[3,4-c]pyridin-6(7H)-yl)-2-oxoethyl)cyclopentanecarboxylic acid]	≤ 100
